Test results as given in patent US4452812A, “Organic complex of platinum, its preparation and its use for treating malignant tumors” (Sanofi, priority 1980, dated 1984).
Entries after “also recorded” stand apart in the source; their conditions may differ.

Columns and labels:
L 1210 cells = assay: Cytotoxicity on L 1210 cells in culture; type: cell-based; settings: read-out: ID50 (reduces by 50% the rate of growth of the cells); usually 24 to 48 hours contact
leukemia L 1210 [1] = assay: Anti-tumour activity, leukemia L 1210, i.p. graft, i.v. treatment; type: in vivo, mouse; settings: for ILS: i.p. graft 10^5 cells
Description: (§1) I. […] L 1210: Ascite and Solid
(b) i.p. graft--i.v. treatment
(§2) The solutions of these compounds were prepared extemporaneously.

[2] = Stability in sodium chloride solution; type: physicochemical; settings: 9% sodium chloride
Description: This compound has an exceptionally high degree of solubility.
as §2

mouse = assay: Acute toxicity in the mouse; type: in vivo, mouse (Swiss female); settings: for loss of weight on the 4th day: i.p.
Description: (§3) Acute toxicity, one single injection of the compound, was measured using Swiss female mice (Evic-Ceba, Bordeaux) of 21 to 23 g. and Sprague-Dawley rats. Ten animals were treated for each dose studied.

leukemia L 1210 [3] = assay: Anti-tumour activity, leukemia L 1210, i.p. graft, i.p. treatment
Description: […] females (CNRS, Orleans) of 20 to 22 g
(a) i.p. graft--i.p. treatment
10^5 cells were grafted intraperitoneally on D0 and intraperitoneal treatment was carried out 24 hours later, D1, in one single injection.
PHD and PHM were suspended in a 4% Klucel (hydroxy propyl cellulose) solution (the word "Klucel" is a registered trademark of Hercules Incorporated, Delaware, U.S.A.).
The solutions of these compounds were prepared extemporaneously. The increase in life span, ILS (%), were calculated in comparison with the controls by the following formula: [formula] Deaths were recorded until day 30 for L 1210 tumour and until day 60 for S180 tumour.

[4] = tested on: renal and hepatic parenchyma; assay: Renal and hepatic toxicity; type: in vivo, mouse (Swiss female)
Description: It was thus of interest to compare the effects of the novel compound of the invention with those of the already known compounds listed above on the kidney and the liver, i.e. the organs in which the greatest amount of platinum accumulates.
Swiss female mice (Evic-Ceba, Bordeaux) of 20 to 22 g were treated by intraperitoneal route D0 and then sacrificed on D1, D4 and D10.
Slices 5 microns thick were coloured with hemalun eosine stain.

[5] = tested on: baboon (ear, Corti organ); assay: Ototoxicity test in the baboon (auditory potentials, echocochleography); type: in vivo; settings: baboon No 3, 200 mg/kg, D31
Description: An ototoxicity test was carried out on baboon No. 3 (200 mg/kg) on D31. This test comprised the following: (a) Registering the auditory potentials when the ear was submitted to 1500 stimuli at 90, 80, 70, 60, 50, 40, 30, 20 and 10 decibels. The results gave the latency times for conduction from the ear to the brain. (b) Performing the same kind of test by echocochleography. This analysis was much more accurate than the previous one because it was only carried out in the Corti organ (cochlea). Frequencies of 8000, 4000, 2000 and 1000 Hertz at 90, 70, 50, 30, 20 and 10 decibels were used. Measurements were made using a Racia Medelec Empled MK4 1026. […] The properties of PHIC compared to those of PDD can be summarized as follows: […]

DNA = assay: Platinum fixed on DNA of L 1210 cells in vivo; set-up: species or system mouse (DBA/2); settings: PDD 9 mg/kg, PHIC 150 mg/kg; two hours after treatment on D3
Description: DBA/2 mice received 10^6 L 1210 cells on D0 and were treated three days later with an amount of platinum compound equal to the LD0 in the healthy mouse. Two hours after treatment on D3, the animals were sacrificed. […] Platinum was monitored by atomic absorption for whole cells and also on the DNA which was purified by phenol extraction. […] Under these conditions, one fixed platinum atom per 3000 nucleotides was found, i.e. a total of 1% of the amount which penetrated the cells was complexed to DNA. […] 10^-16 of platinum per cell.

abdominal viscera = assay: Peritonitis (adhesion and hardening of abdominal viscera); type: in vivo, mouse
Description: as §2
As discussed above this problem seems to be linked to the presence of the 1,2-diaminocyclohexane ligand.

rat = assay: Acute toxicity in the rat; type: in vivo, rat (Sprague-Dawley)
Description: as §3

leukemia L 1210 [6] = assay: Anti-tumour activity, leukemia L 1210, s.c. graft, i.p. treatment; type: in vivo, mouse; settings: s.c. graft 10^6 cells
Description: as §1
(c) s.c. graft--i.p. treatment
10^6 cells were grafted under the skin behind the head on D0 and intraperitoneal treatment was carried out in one single injection either on D1 or on D4.
as §2

SMILES: NC1CCCCC1N.O=C([O-])CC(C(=O)[O-])C([O-])C(=O)[O-].[H+].[H+].[Pt+2] (stereo not drawn) [PHIC, cis-isocitrato (1,2-diaminocyclohexane) platinum (II)]
- IC50 (L 1210 cells): 420 nM
- anti-tumour activity (in words) (leukemia L 1210 [1]; graft intraperitoneal, treatment intravenous): active
- ILS (leukemia L 1210 [1]; 50 mg/kg i.v. on D1): 25%
- ILS (leukemia L 1210 [1]; 125 mg/kg i.v. on D1): 41%
- change to chlorinated derivative in sodium chloride solution [2]: changing in 24 hours to a yellow chlorinated derivative which precipitates
- loss of weight on the 4th day (mouse; LD10 dose): 3.5 g
- loss of weight on the 4th day (mouse; LD50 dose): 4.3 g
- toxicity (in words) (mouse; mice): Extremely low toxicity
- LD10 (mouse; mouse, I.P.): 135 mg/kg
- LD50 (mouse; mouse, I.P.): 236 mg/kg
- LD90 (mouse; mouse, I.P.): 365 mg/kg
- LD10 (mouse; mouse, I.V.): 348 mg/kg
- LD50 (mouse; mouse, I.V.): 421 mg/kg
- LD90 (mouse; mouse, I.V.): 489 mg/kg
- LD50 (mouse; mouse, P.O.): > 1 000 mg/Kg
- LD10 (dose killing 10% of the animals) (mouse; mouse, one single injection, Table V): 153 mg/kg
- ILS (leukemia L 1210 [3]; 5 mg/kg, single i.p. on D1): 16%
- ILS (leukemia L 1210 [3]; 10 mg/kg, single i.p. on D1): 40%
- ILS (leukemia L 1210 [3]; 25 mg/kg, single i.p. on D1): 59%
- ILS (leukemia L 1210 [3]; 50 mg/kg, single i.p. on D1): 79%
- toxic death (leukemia L 1210 [3]; 100 mg/kg i.p., excluded from ILS calculation): one toxic death
- ILS (leukemia L 1210 [3]; 100 mg/kg, single injection on D1): 129%
- Survivals (leukemia L 1210 [3]; L 1210, 5 mg/kg i.p. on D1, day 30): 0%
- Survivals (leukemia L 1210 [3]; L 1210, 10 mg/kg i.p. on D1, day 30): 0%
- Survivals (leukemia L 1210 [3]; L 1210, 25 mg/kg i.p. on D1, day 30): 0%
- Survivals (leukemia L 1210 [3]; L 1210, 50 mg/kg i.p. on D1, day 30): 0%
- Survivals (leukemia L 1210 [3]; L 1210, 100 mg/kg i.p. on D1, day 30): 20%
- anti-tumour activity (in words) (leukemia L 1210 [3]; leukemia L 1210): Very marked anti-tumor activity; also recorded: exerts the anti-tumour activity
- Surviving animals having received L 1210 leukaemia and S 180 sarcoma (leukemia L 1210 [3]; summary for L 1210 and S 180): Yes
- nephrotoxicity ([4]; LD0 level, mice): No
- renal lesion ([4]; at a dose 20 times greater than that of PDD): does not cause any renal lesion
- renal and hepatic alterations ([4]; i.p. at ~LD0 (mg/kg): PDD 8, PAC 100, PHM 50, PHD 4, PHS 5, PHC 120, PHIC 150, D1, D4, D10): did not provoke any significant alterations
- ototoxic effect [5]: No ototoxic effect was detected
- Number of fixed platinum atoms per nucleotide on DNA (DNA): 1/3500
- amount that penetrated the cells which was complexed to DNA (DNA): 1%
- nucleotides per one fixed platinum atom (DNA): 3500 nucleotides
- peritonitis (abdominal viscera; healthy mice, i.p. injection): also observed in healthy mice
- occurrence of peritonitis in relation to the 1,2-diaminocyclohexane ligand (abdominal viscera; i.p.): seems to be correlated with the presence of 1,2-diaminocyclohexane
- peritonitis / long-term toxic effect (abdominal viscera; i.v. administration): never encountered; also recorded: not observed
- peritonitis (abdominal viscera; tumour-bearing mice, i.p. treatment): most of the mice reaching 30 days of survival treatment with PHM and PHIC developed peritonitis; also recorded: causes peritonitis
- LD10 (rat; I.P.): 61 mg/kg
- LD50 (rat; I.P.): 143 mg/kg
- LD90 (rat; I.P.): 278 mg/kg
- LD10 (rat; I.V.): 111 mg/kg
- LD50 (rat; I.V.): 173 mg/kg
- LD90 (rat; I.V.): 244 mg/kg
- LD50 (rat; P.O.): > 1 000 mg/Kg
- ILS (leukemia L 1210 [6]; 62.5 mg/kg i.p. on D1): 26%
- ILS (leukemia L 1210 [6]; 62.5 mg/kg i.p. on D4): 17%
- ILS (leukemia L 1210 [6]; 125 mg/kg i.p. on D4): 50%
